Data from the supplement of paper PMC11451515.

Tests used:
Conditions in all cases: 48 h
NOMO1 [1] = assay: AUC of viability dose-response curve (% viability x log10 dose units); higher = less sensitive
Method in brief: (§1)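 Over 48 h at 37°C, leukemia cells in 1536-well plates (500 or 1000 cells/well), adapted to each medium, received library compounds in DMSO at 11 threefold doses from 47 μM to 0.79 nM. CellTiter-Glo One luminescence, normalised per plate to DMSO and cell-free wells, was fitted by a four-parameter log-logistic function of log10 dose. The area under the curve was then integrated by trapezoidal rule, after scaling curves above full viability and removing those that failed quality control.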

P12-Ichikawa [2] = assay: as above
Method in brief: as §1

SEM cells [3] = assay: as above
Method in brief: as §1

NOMO1 [4] = assay: cell viability relative to DMSO control; higher = less cytotoxic
Method in brief: (§2)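 Library compounds in DMSO were pin-dosed into 1536-well plates (5 μl) holding NOMO1 or SEM (500 cells/well) or P12-Ichikawa (1000 cells/well) leukemia cells, across an 11-point threefold series of 47 μM to 0.79 nM. Each cell line had been adapted for at least four passages in each medium. CellTiter-Glo One luminescence was read after 48 h at 37°C. Viability is the per-plate percentage relative to DMSO wells, with cell-free wells as background.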

P12-Ichikawa [5] = assay: as above
Method in brief: as §2

SEM cells [6] = assay: as above
Method in brief: as §2

CC(C)(C)C1=CC(=C(NC(=O)C/2=C/NC3=C(C=CC=C3)C2=O)C=C1O)C(C)(C)C
AUC of viability dose-response curve
Conditions | NOMO1 [1] | P12-Ichikawa [2] | SEM cells [3]
HPLM + 10% dialyzed FBS | 447 | 471 | 461
RPMI 5 mM glucose + 10% FBS | 462 | 452 | 467
RPMI 5 mM glucose + 10% dialyzed FBS | 464 | 455 | 470

cell viability [%]
Conditions | NOMO1 [4] | P12-Ichikawa [5] | SEM cells [6]
HPLM + 10% dialyzed FBS, 0.000781 µM | – | 123 | 122
HPLM + 10% dialyzed FBS, 0.00234 µM | – | 113 | 118
HPLM + 10% dialyzed FBS, 0.00702 µM | – | 124 | 128
HPLM + 10% dialyzed FBS, 0.0211 µM | – | 120 | 123
HPLM + 10% dialyzed FBS, 0.0632 µM | – | 121 | 113
HPLM + 10% dialyzed FBS, 0.19 µM | – | 124 | 131
HPLM + 10% dialyzed FBS, 0.569 µM | – | 120 | 124
HPLM + 10% dialyzed FBS, 1.71 µM | – | 118 | 124
HPLM + 10% dialyzed FBS, 5.12 µM | – | 118 | 109
HPLM + 10% dialyzed FBS, 15.4 µM | – | 114 | 108
HPLM + 10% dialyzed FBS, 46.1 µM | – | 112 | 103
RPMI 5 mM glucose + 10% FBS, 0.000781 µM | 120 | 124 | 109
RPMI 5 mM glucose + 10% FBS, 0.00234 µM | 108 | 139 | 108
RPMI 5 mM glucose + 10% FBS, 0.00702 µM | 118 | 124 | 126
RPMI 5 mM glucose + 10% FBS, 0.0211 µM | 128 | 133 | 113
RPMI 5 mM glucose + 10% FBS, 0.0632 µM | 136 | 119 | 120
RPMI 5 mM glucose + 10% FBS, 0.19 µM | 124 | 124 | 111
RPMI 5 mM glucose + 10% FBS, 0.569 µM | 121 | 131 | 129
RPMI 5 mM glucose + 10% FBS, 1.71 µM | 116 | 115 | 129
RPMI 5 mM glucose + 10% FBS, 5.12 µM | 114 | 117 | 123
RPMI 5 mM glucose + 10% FBS, 15.4 µM | 111 | 116 | 116
RPMI 5 mM glucose + 10% FBS, 46.1 µM | 103 | 112 | 108
RPMI 5 mM glucose + 10% dialyzed FBS, 0.000781 µM | – | – | 98.7
RPMI 5 mM glucose + 10% dialyzed FBS, 0.00234 µM | – | – | 101
RPMI 5 mM glucose + 10% dialyzed FBS, 0.00702 µM | – | – | 103
RPMI 5 mM glucose + 10% dialyzed FBS, 0.0211 µM | – | – | 99.9
RPMI 5 mM glucose + 10% dialyzed FBS, 0.0632 µM | – | – | 101
RPMI 5 mM glucose + 10% dialyzed FBS, 0.19 µM | – | – | 103
RPMI 5 mM glucose + 10% dialyzed FBS, 0.569 µM | – | – | 115
RPMI 5 mM glucose + 10% dialyzed FBS, 1.71 µM | – | – | 97.8
RPMI 5 mM glucose + 10% dialyzed FBS, 5.12 µM | – | – | 110
RPMI 5 mM glucose + 10% dialyzed FBS, 15.4 µM | – | – | 110
RPMI 5 mM glucose + 10% dialyzed FBS, 46.1 µM | – | – | 94.7

NNc1nncc2ccccc12
AUC of viability dose-response curve
Conditions | NOMO1 [1] | P12-Ichikawa [2] | SEM cells [3]
HPLM + 10% dialyzed FBS | 472 | 470 | 436
RPMI 5 mM glucose + 10% FBS | 461 | 452 | 454
RPMI 5 mM glucose + 10% dialyzed FBS | 466 | 463 | 438

cell viability [%]
Conditions | NOMO1 [4] | P12-Ichikawa [5] | SEM cells [6]
HPLM + 10% dialyzed FBS, 0.000781 µM | 115 | 112 | 76.2
HPLM + 10% dialyzed FBS, 0.00234 µM | 125 | 121 | 105
HPLM + 10% dialyzed FBS, 0.00702 µM | 131 | 127 | 109
HPLM + 10% dialyzed FBS, 0.0211 µM | 139 | 122 | 103
HPLM + 10% dialyzed FBS, 0.0632 µM | 144 | 126 | 117
HPLM + 10% dialyzed FBS, 0.19 µM | 146 | 131 | 122
HPLM + 10% dialyzed FBS, 0.569 µM | 134 | 121 | 112
HPLM + 10% dialyzed FBS, 1.71 µM | 139 | 134 | 136
HPLM + 10% dialyzed FBS, 5.12 µM | 132 | 129 | 126
HPLM + 10% dialyzed FBS, 15.4 µM | 119 | 124 | 117
HPLM + 10% dialyzed FBS, 46.1 µM | 128 | 130 | 132
RPMI 5 mM glucose + 10% FBS, 0.000781 µM | 123 | – | 87.8
RPMI 5 mM glucose + 10% FBS, 0.00234 µM | 121 | – | 114
RPMI 5 mM glucose + 10% FBS, 0.00702 µM | 128 | – | 128
RPMI 5 mM glucose + 10% FBS, 0.0211 µM | 126 | – | 128
RPMI 5 mM glucose + 10% FBS, 0.0632 µM | 151 | – | 152
RPMI 5 mM glucose + 10% FBS, 0.19 µM | 124 | – | 125
RPMI 5 mM glucose + 10% FBS, 0.569 µM | 135 | – | 156
RPMI 5 mM glucose + 10% FBS, 1.71 µM | 130 | – | 162
RPMI 5 mM glucose + 10% FBS, 5.12 µM | 128 | – | 131
RPMI 5 mM glucose + 10% FBS, 15.4 µM | 137 | – | 134
RPMI 5 mM glucose + 10% FBS, 46.1 µM | 131 | – | 115
RPMI 5 mM glucose + 10% dialyzed FBS, 0.000781 µM | 121 | – | 89.6
RPMI 5 mM glucose + 10% dialyzed FBS, 0.00234 µM | 139 | – | 124
RPMI 5 mM glucose + 10% dialyzed FBS, 0.00702 µM | 121 | – | 125
RPMI 5 mM glucose + 10% dialyzed FBS, 0.0211 µM | 130 | – | 143
RPMI 5 mM glucose + 10% dialyzed FBS, 0.0632 µM | 137 | – | 152
RPMI 5 mM glucose + 10% dialyzed FBS, 0.19 µM | 132 | – | 135
RPMI 5 mM glucose + 10% dialyzed FBS, 0.569 µM | 141 | – | 147
RPMI 5 mM glucose + 10% dialyzed FBS, 1.71 µM | 138 | – | 163
RPMI 5 mM glucose + 10% dialyzed FBS, 5.12 µM | 134 | – | 153
RPMI 5 mM glucose + 10% dialyzed FBS, 15.4 µM | 131 | – | 156
RPMI 5 mM glucose + 10% dialyzed FBS, 46.1 µM | 141 | – | 158
